Reference: patent US20160317391A1, “MEDIA MILLING PROCESS FOR THE MANUFACTURE OF ACTIVE PHARMACEUTICAL INGREDIENTS IN PROPELLANTS” (MERCK SHARP & DOHME CORP., priority 2013, published 2016)
Values joined by “and” are separate entries in the source; they are usually repeats but may differ in a detail not shown here. Identical values can stand only once. Each block holds one compound with its values, some of them ahead of it.

Columns and labels:
[1] = Particle size distribution (X50, X90) before and after HFA-LabRAM media milling, […] particle size analyzer; type: physicochemical; conditions: for X50 after RAM-milling: grades ML001 and SV003; for particle size (X50) prior to HFA-based RAM milling: unmilled; for PSD after HFA Milling X50 / PSD after HFA Milling X90: 80% power
Description: In a typical RAM based media milling process (see FIG. 1), API is added to a glass bottle along with Yttria zirconia (YTZ, diameters ranging from about 0.1 to about 2 mm) beads. Preferred bead sizes are from about 0.05 to about 5 mm. Another preferred bead size is from about 0.1 to about 2 mm. Other components that can be added to the API-bead mixture include stabilizers and surfactants that can augment the milling process. The ratio of the beads to that of the formulation components can be varied to suit the needs of particle size requirements. Particularly preferred ratios of beads to formulation components are from 40:1, 20:1, 15:1, 10:1 and 5:1. The bottle is crimp sealed and filled with appropriate amounts of either HFA227 or HFA134a (or a combination of both at varying ratios). The bottle is then loaded onto a RAM device and milled for a specified duration of time and at a specified power. Milling times include between about 5 minutes to about 300 minutes. Preferred milling times are from about 30 minutes to about 200 minutes and 60 minutes to about 120 minutes. Power includes about 10% to about 100% power. Preferred power range is about 40% to about 100%. Further, preferred power range is about 75% to about 100%. In most cases, the process can proceed to completion without stoppage. However, because of the ease and simplicity of the process, the process flow can be readily altered by stopping the media milling at intermittent time points for a known period of time before restarting the process again. This may be performed to cool the contents of the bottle at regular intervals. After completion, the bottle is allowed to revert to room temperature (if needed) to rapidly vent the HFA. After the process is finished the contents of the bottle (API, any excipients and/or additives, and the beads) are then added to a sieve of appropriate mesh size to separate the beads and the API. The milled API is collected and stored at 0% RH (in a nitrogen glove box) for further use.
GP was milled utilizing LabRAM in both HFA134a and HFA227. The milling was accomplished at different parameters of solids ratio, milling duration and power. YTZ beads ([…]) were utilized.
Lactose is an excipient that is FDA approved and is utilized as a carrier in dry powder inhalers. In one variation of the milling study, β-lactose (anhydrous) purchased from sigma-aldrich was subjected to HFA (HFA227) based media milling using LabRAM at a preset power of 80% and for a duration of 70 minutes. The ratio of YTZ beads ([…]) to β-lactose was maintained at 20:1. Particle size (X50) of β-lactose prior to HFA-based RAM milling was 153.6±7.4 μm. Upon subjecting the unmilled lactose to RAM-milling under the aforementioned conditions, the particle size (X50) of β-lactose was 3.47±0.01 μm.

[2] = DSC thermograms of unmilled and HFA-LabRAM milled material (solid state); type: physicochemical; conditions: milled versus unmilled material
Excerpt: With respect to the examples below, the milled API was subject to DSC and the thermograms compared to that of the neat unmilled API. The data from the thermograms clearly indicate that the RAM based HFA-milled API maintains its crystalline structure (FIG. 2B). It was also confirmed that the RAM milling process minimized the undesirable amorphous material generation during milling.

[3] = HFA227, 60 mins, API:Bead ratio (w/w) 20, in µm (unit assumed)
[4] = HFA227, 86 min, API:Bead ratio (w/w) 20, in µm (unit assumed)
[5] = HFA227, 90 min, 5 min stop @45, 10 min stop, 90% power for additional 3 mins, API:Bead ratio (w/w) 20, in µm (unit assumed)
[6] = HFA227, 90 min, 5 min stop @45, API:Bead ratio (w/w) 10, in µm (unit assumed)
[7] = HFA227, 105 mins, API:Bead ratio (w/w) 20, in µm (unit assumed)
[8] = unmilled GP, in µm (unit assumed)

Structure (SMILES): O.OC[C@H]1O[C@@H](O[C@H]2[C@H](O)[C@@H](O)C(O)O[C@@H]2CO)[C@H](O)[C@@H](O)[C@H]1O (some centres unmarked) [Lactose monohydrate]
X50 after RAM-milling ([1]; HFA134a, similar conditions): 1.9 μm
X50 after RAM-milling ([1]; HFA227): less than 3 μm

Structure (SMILES): OC[C@H]1O[C@@H](O[C@H]2[C@H](O)[C@@H](O)[C@H](O)O[C@@H]2CO)[C@H](O)[C@@H](O)[C@H]1O [β-lactose]
particle size (X50) of the recovered product ([1]; HFA134a, bead to lactose ratio 40:1, 60 minute duration): 2.3 μm
particle size (X50) after RAM-milling ([1]; HFA227, power 80%, 70 minutes, YTZ beads to β-lactose 20:1): 3.47±0.01 μm
particle size (X50) prior to HFA-based RAM milling [1]: 153.6±7.4 μm
solid state after HFA-LabRAM milling (DSC) [2]: crystalline
solid state after HFA-LabRAM milling (DSC) ([2]; listed as lactose): no glass transition

Further lines, with some results ahead:

particle size (X50) at start of storage (75% RH and 25° C. study, initial value): 1.54 μm
particle size (X50) after storage (75% RH and 25° C., within a span of 24 h): 1.78 μm
increase in PSD (75% RH and 40° C., within 20 h): 0.5 μm
Structure (SMILES): C[N+]1(C)CCC(OC(=O)C(O)(c2ccccc2)C2CCCC2)C1.[Br-] (centres unmarked) [HFA-LabRAM milled GP, glycopyrrolate bromide]

X50 after LabRAM milling, all cases ([1]; HFA134a and HFA227, different solids ratio, milling duration and power, YTZ beads): less than 3 μm
average X50 after LabRAM milling ([1]; HFA134a, increased solids ratio): 1.5 μm
PSD after HFA Milling X50 [1, 3]: 3.49 ± 0.02
PSD after HFA Milling X90 [1, 3]: 15.93 ± 0.14
PSD after HFA Milling X50 [1, 4]: 1.7
PSD after HFA Milling X90 [1, 4]: 4.53 ± 0.21
PSD after HFA Milling X50 [1, 5]: 1.37 ± 0.13
PSD after HFA Milling X90 [1, 5]: 3.67 ± 0.03
PSD after HFA Milling X50 [1, 6]: 1.7 and 1.53 ± 0.06
PSD after HFA Milling X90 [1, 6]: 3.87 ± 0.12 and 3.67 ± 0.06
PSD after HFA Milling X50 [1, 7]: 2.62 ± .01
PSD after HFA Milling X90 [1, 7]: 9.83 ± 0.01
particle size (X50) prior to HFA-based RAM milling [1]: ca. 51 μm
solid state after HFA-LabRAM milling (DSC) [2]: no change in the polymorphic state
Structure (SMILES): C[N+]1(C)CCC(OC(=O)C(O)(c2ccccc2)C2CCCC2)C1 (centres unmarked) [GP, glycopyrrolate bromide]
PSD before HFA Milling X50 [1, 8]: 52.77 ± 1.55 and 52.77 ± 1.56 and 52.77 ± 1.57 and 52.77 ± 1.54
PSD before HFA Milling X90 [1, 8]: 134.7 ± 9.10 and 134.7 ± 9.11 and 134.7 ± 9.12 and 134.7 ± 9.9

time within which X50 / particle size doubles (75% RH and 40° C.): ≤ 6 h
particle size shown at 24 h (visual observation) (75% RH and 40° C., 24 h, visual observation, […]): 10 μm
increase in the size of the API (75% RH and 40° C., within 24 h): 100 fold
Structure (SMILES): C[N+]1(C)CCC(OC(=O)C(O)(c2ccccc2)C2CCCC2)C1.[Br-] (centres unmarked) [jet milled GP, glycopyrrolate bromide]
